Experiments:
Type in all cases: cell-based
[1] = tested on: MCF7; experiment: In vitro antiproliferative assay (MTT assay), MCF7; conditions: Homo sapiens, second value of MDAMB231/MCF7 column
Protocol: MTT assay is a simple and sensitive assay where, metabolic reducing activity of the cells is measured. The increase of this activity in time is taken as a parameter of cell growth. If treatment with a drug impairs this increase, the action is a consequence of growth inhibition, cell killing or both. […] All cell lines were cultured in a 37° C. incubator with a 5% CO2 environment. Compounds were dissolved in DMSO with a concentration of 0.1M (stock solution). Cells were seeded into 96-well plates at suitable plating efficiency.
In the MTT procedure, the cells were plated in 96 well plates as per predetermined plating efficiency (Table1). The plates were then incubated for 24 hrs in 5% CO2 atmosphere at 37° C. Appropriate concentrations of the drugs were then added to the plate and further incubation was carried out for 48 hrs (in 5% CO2 atmosphere at 37° C.). The assay plate was then centrifuged twice at 3000 rpm for 3 mins and supernatant was then discarded. 100 ul of MTT solution (0.5 mg/ml) was then added to each well of the plate and it was further incubated for 4 hrs (in 5% CO2 atmosphere at 37° C.) Following 4 hr incubation, the plate was then centrifuged twice, and supernatant was aspirated off very carefully. 200 ul of DMSO was then added to each well to solubilize. MTT crystals and mixed well by shaking the plate. […]

[2] = tested on: MDAMB231; experiment: In vitro antiproliferative assay (MTT assay), breast cancer cell line; conditions: Homo sapiens, MDA-MB-231, MTT assay, MDAMB231
Method in brief: (§1)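 Metabolic reduction of MTT served as the growth measure. Plated cells rested 24 h, received compound for 48 h at 37 °C under 5% CO2, then MTT at 0.5 mg/ml for 4 h before DMSO solubilization.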

[3] = tested on: PC3; experiment: In vitro antiproliferative assay (MTT assay), prostate cancer cell line; conditions: Homo sapiens, PC-3, MTT assay, PC3
Method in brief: as §1

Row | IC50 [1] | IC50 [2] | IC50 [3] | SMILES
1 | 480 nM | 970 nM | 582 nM | O=C1C(Oc2ccc3c(c2)OCO3)=CC(=O)c2c(OCCCCN3CCOCC3)cccc21 [Formula 82]
2 | 660 nM | 860 nM | 721 nM | O=C1C=C(Oc2ccc(F)c(F)c2)C(=O)c2c(OCCN3CCOCC3)cccc21 [Formula 83]

Reference: patent US20240018132A1, “5-HYDROXY-1,4-NAPHTHALENEDIONE FOR USE IN THE TREATMENT OF CANCER” (GODAVARI BIOREFINERIES LIMITED, priority 2020, published 2024)
